Literature values, collected in patent US5084277A, “Vaginal progesterone tablet” (priority 1990, dated 1992).

Columns and labels:
[1] = not given; remark: listed apart in the source

Q: Which results are given for `CC(=O)[C@H]1CC[C@H]2[C@@H]3CCC4=CC(=O)CC[C@]4(C)[C@H]3CC[C@]12C` [progesterone, pregn-4-ene-3,20-dione]?
A: Plasma half-life of endogenous progesterone (endogenous): a few minutes; Storage of progesterone in body fat (in vivo): A small amount of progesterone is stored in body fat; Time within which all exogenous progesterone is metabolized (suggested by Myers et al.): ≤ 24 h; Tolerability of parenteral administration ([1]; deep intramuscular injections): often very painful and irritating at the site of injection; Serum levels after oral administration ([1]; in vivo, po): significant but highly variable serum levels; Absorption by the rectal route ([1]; rectal): highly variable
